Experimental data reported in US20240018119A1, “CARBOXAMIDE DERIVATIVE AND PHARMACEUTICAL COMPOSITION COMPRISING SAME AS ACTIVE INGREDIENT FOR PREVENTING OR TREATING MENTAL ILLNESS” (DAEGU-GYEONGBUK MEDICAL INNOVATION FOUNDATION, priority 2020, published 2024).
Where two headings read alike, the source gives them in different places.

How the values were obtained:
serotonin transporter = target: T1, serotonin transporter (Homo sapiens, UniProt P31645); test: Serotonin reuptake inhibition in transporter-transfected HEK-293 cells ([3H]-5-HT); assay type: cell-based; settings: for Triple reuptake inhibition (Ratio %) SERT: compound 1 μM, [3H]-5-HT, relative to control without compound (100%), lower = more inhibition
T1 construct: expressed in transfected cells; host or cells: HEK-293

dopamine transporter = target: T2, dopamine transporter (Homo sapiens, UniProt Q01959); test: Dopamine reuptake inhibition in transporter-transfected HEK-293 cells ([3H]-DA); assay type: cell-based; settings: for Triple reuptake inhibition (Ratio %) DAT: compound 1 μM, 20-30 nM [3H]-DA, relative to control without compound (100%), lower = more inhibition
T2 construct: expressed in transfected cells; host or cells: HEK-293
Method in brief: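 HEK-293 cells transfected with human DAT cDNA; compound preincubated 15 min at 37 °C in uptake buffer, then buffer containing 20-30 nM [3H]-DA added for 5 min at 37 °C. After ice-cold washes and SDS lysis, radioactivity expressed as % of untreated control; IC50 from six concentrations (1 nM–1 μM).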

male ICR mice = test: Hyperactivity inhibitory effect, open field test (EthoVision) in MK801-treated mice; assay type: in vivo; settings: for distance moved: vehicle about 7000 cm; for movement duration: vehicle about 880 s
Description: In order to evaluate the hyperactivity inhibitory effect of the compounds of Example 35 and Example 66 according to the present invention or Comparative Example 1, an experiment was performed as follows, and the results are shown in FIG. 1. An open field test is an experimental method utilized for searching for excess and decline in motor function, calmness, excitement, avoidance degree and toxicity.
The observation of the hyperactivity and behavior analysis of animals were conducted using an EthoVisiorn System (Noldus IT b.v., Netherlands) that is a type of an open field test. The animals used for the experiment were male ICR mice of 4 weeks old. To induce hyperactivity, animal models intraperitoneally administered with 0.15 mg/kg of MK801 (drug name: dizocilpine) were used, and the compounds of Example 35, example 66 or Comparative Example 1 was intraperitoneally administered by 5 mg/kg, 30 minutes ago the administration of MK801. Male ICP mice administered with 10% DMSO and 10% Tween-80 as the solvents dissolving a drug were considered a vehicle, and male ICR mice administered with MK801 […] with the Example Compound or Comparative Compound were considered a positive control. After that, in the center of a test box (40×40×30 cm) manufactured using black acryl, the mice under test were put and allowed to fit for 15 minutes, and behavior patterns were observed, recorded and analyzed for 15 minutes. Comparative analysis was conducted by measuring distance moved and movement duration.

[1] = target: T3, norepinephrine transporter (Homo sapiens, UniProt P23975); test: Norepinephrine reuptake inhibition in transporter-transfected HEK-293 cells ([3H]-NE); assay type: cell-based; settings: for Triple reuptake inhibition (Ratio %) NET: compound 1 μM, [3H]-NE, relative to control without compound (100%), lower = more inhibition
T3 construct: expressed in transfected cells; host or cells: HEK-293

[2] = concentration at which Ratio % is 50%, 6 concentrations 1 nM to 1 μM, read-out: Triple reuptake inhibition (IC50, μM) SERT
[3] = concentration at which Ratio % is 50%, 6 concentrations 1 nM to 1 μM, read-out: Triple reuptake inhibition (IC50, μM) DAT
[4] = concentration at which Ratio % is 50%, 6 concentrations 1 nM to 1 μM, read-out: Triple reuptake inhibition (IC50, μM) NET
[5] = positive control treated with only MK801 0.15 mg/kg i.p.

T1 sequence (P31645 whole entry): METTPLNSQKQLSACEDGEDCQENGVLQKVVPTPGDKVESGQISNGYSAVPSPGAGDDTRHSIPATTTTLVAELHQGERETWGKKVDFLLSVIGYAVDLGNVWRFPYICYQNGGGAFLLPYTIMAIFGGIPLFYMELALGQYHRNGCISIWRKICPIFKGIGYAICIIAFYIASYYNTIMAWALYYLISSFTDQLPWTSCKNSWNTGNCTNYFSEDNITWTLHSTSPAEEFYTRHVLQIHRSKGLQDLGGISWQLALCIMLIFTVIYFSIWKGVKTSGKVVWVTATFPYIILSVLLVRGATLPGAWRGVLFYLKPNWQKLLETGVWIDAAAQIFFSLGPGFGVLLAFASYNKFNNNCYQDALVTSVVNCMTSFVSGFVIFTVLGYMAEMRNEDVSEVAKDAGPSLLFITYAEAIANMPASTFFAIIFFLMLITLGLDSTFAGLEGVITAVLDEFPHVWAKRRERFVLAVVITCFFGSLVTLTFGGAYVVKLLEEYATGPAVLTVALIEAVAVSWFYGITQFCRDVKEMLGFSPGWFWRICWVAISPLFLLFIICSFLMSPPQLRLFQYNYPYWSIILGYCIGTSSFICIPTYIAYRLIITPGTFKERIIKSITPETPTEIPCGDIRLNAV
T3 sequence (P23975 whole entry, species assumed): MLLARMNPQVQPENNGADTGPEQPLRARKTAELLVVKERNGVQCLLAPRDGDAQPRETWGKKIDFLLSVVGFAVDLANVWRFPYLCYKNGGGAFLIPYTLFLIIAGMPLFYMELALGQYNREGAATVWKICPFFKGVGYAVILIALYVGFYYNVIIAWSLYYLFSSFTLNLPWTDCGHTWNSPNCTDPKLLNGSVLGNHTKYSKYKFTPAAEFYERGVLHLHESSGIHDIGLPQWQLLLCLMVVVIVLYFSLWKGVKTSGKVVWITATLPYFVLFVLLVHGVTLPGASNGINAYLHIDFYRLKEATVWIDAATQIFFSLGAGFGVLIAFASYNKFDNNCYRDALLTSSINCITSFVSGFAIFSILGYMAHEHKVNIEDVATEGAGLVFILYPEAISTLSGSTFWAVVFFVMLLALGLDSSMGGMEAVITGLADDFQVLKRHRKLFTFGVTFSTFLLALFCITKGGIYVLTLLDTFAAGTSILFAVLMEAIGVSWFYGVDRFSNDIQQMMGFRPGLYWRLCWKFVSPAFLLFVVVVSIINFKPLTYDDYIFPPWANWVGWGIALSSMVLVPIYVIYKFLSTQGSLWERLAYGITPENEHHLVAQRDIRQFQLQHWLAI
T2 sequence (Q01959 whole entry): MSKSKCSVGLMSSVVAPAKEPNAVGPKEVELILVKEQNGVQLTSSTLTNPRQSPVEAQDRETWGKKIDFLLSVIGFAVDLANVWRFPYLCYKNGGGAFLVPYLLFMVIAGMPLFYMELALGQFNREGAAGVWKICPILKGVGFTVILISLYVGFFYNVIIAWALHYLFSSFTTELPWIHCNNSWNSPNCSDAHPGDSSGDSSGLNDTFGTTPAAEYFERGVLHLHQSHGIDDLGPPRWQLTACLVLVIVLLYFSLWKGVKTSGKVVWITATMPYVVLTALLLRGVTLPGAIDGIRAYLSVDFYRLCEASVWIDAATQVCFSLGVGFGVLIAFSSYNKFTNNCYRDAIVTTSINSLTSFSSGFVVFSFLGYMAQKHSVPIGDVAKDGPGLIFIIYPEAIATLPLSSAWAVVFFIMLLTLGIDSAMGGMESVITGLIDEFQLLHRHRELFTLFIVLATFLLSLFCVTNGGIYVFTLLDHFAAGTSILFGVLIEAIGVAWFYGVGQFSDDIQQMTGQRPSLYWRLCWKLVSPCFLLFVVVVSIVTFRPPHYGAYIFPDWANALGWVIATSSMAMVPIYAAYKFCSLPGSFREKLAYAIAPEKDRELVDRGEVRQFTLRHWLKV

SMILES | Triple reuptake inhibition (Ratio %) SERT (serotonin transporter) | Triple reuptake inhibition (Ratio %) DAT (dopamine transporter) | Triple reuptake inhibition (Ratio %) NET [1] | further results
COc1cc2cc(C(=O)NCCN3CCC(Cc4ccccc4)CC3)[nH]c2cc1OC [Example 35, N-(2-(4-benzylpiperidin-1-yl)ethyl)-5,6-dimethoxy-1H-indol-2-carboxamide] | 36.24% | 7.77% | 16.10% | IC50 (serotonin transporter; [2]): 0.415 µM; IC50 (dopamine transporter; [3]): 0.248 µM; hyperactivity of the mice induced with MK801 (male ICR mice; 5 mg/kg intraperitoneally 30 minutes before MK801 0.15 mg/kg i.p.): significantly inhibited; distance moved (male ICR mice; 5 mg/kg intraperitoneally 30 minutes before MK801 0.15 mg/kg i.p., observed 15 minutes, MK801 only about 14000 cm): about 10000 cm; movement duration (male ICR mice; 5 mg/kg intraperitoneally 30 minutes before MK801 0.15 mg/kg i.p., MK801 only about 1070 s): about 950 seconds; IC50 [1, 4]: 0.386 µM
O=C(N[C@@H]1CC[C@@H](c2ccc(Cl)c(Cl)c2)c2ccccc21)c1cc2ccccc2[nH]1 [Example 62, N-((1R,4S)-4-(3,4-dichlorophenyl)-1,2,3,4-tetrahydronaphthalen-1-yl)-1H-indol-2-carboxamide] | 94.51% | 79.43% | 144.33% | 
O=C(NCCN1CCC(Cc2ccccc2)CC1)c1cc2cc(O)c(O)cc2[nH]1 [Example 63, N-(2-(4-benzylpiperidin-1-yl)ethyl)-5,6-dihydroxy-1H-indol-2-carboxamide] | 38.25% | 13.34% | 48.43% | IC50 (serotonin transporter; [2]): 0.369 µM; IC50 (dopamine transporter; [3]): 0.087 µM; IC50 [1, 4]: 0.092 µM
O=C(NCCN1CCC(Cc2ccccc2)CC1)c1nc2cc(O)ccc2[nH]1 [Example 64, N-(2-(4-benzylpiperidin-1-yl)ethyl)-5-hydroxy-1H-benzo[d]imidazol-2-carboxamide] | 47.72% | 22.84% | 57.21% | IC50 (serotonin transporter; [2]): 0.237 µM; IC50 (dopamine transporter; [3]): 0.362 µM; IC50 [1, 4]: 0.543 µM
O=C(NCCN1CCC(Cc2ccc(Cl)c(Cl)c2)CC1)c1cc2cc(O)c(O)cc2[nH]1 [Example 65, N-(2-(4-(3,4-dichlorobenzyl)piperidin-1-yl)ethyl)-5,6-dihydroxy-1H-indol-2-carboxamide] | 10.79% | 7.57% | 73.83% | IC50 (serotonin transporter; [2]): 0.044 µM; IC50 (dopamine transporter; [3]): 0.049 µM; IC50 [1, 4]: 5.73 µM
CCCCOc1ccc2[nH]c(C(=O)NCCN3CCC(Cc4ccccc4)CC3)cc2c1 [Example 67, N-(2-(4-benzylpiperidin-1-yl)ethyl)-5-butoxy-1H-indol-2-carboxamide] | 53.46% | 56.05% | 92.60% | 
CN(CCNC(=O)c1cc2ccccc2[nH]1)Cc1ccc2ccccc2c1 [Example 68, N-(2-(methyl(napthalen-2-ylmethyl)amino)ethyl)-1H-indol-2-carboxamide] | 87.07% | 90.63% | 100.99% | 
O=C(NCCN1CCC(Cc2ccccc2)CC1)C1CC1 [Example 69, N-(2-(4-benzylpiperidin-1-yl)ethyl)cyclopropanecarboxamide] | 113.80% | 92.83% | 86.02% | 
CC1(C(=O)NCCN2CCC(Cc3ccccc3)CC2)CC1 [Example 70, N-(2-(4-benzylpiperidine-1-yl)ethyl)-1-methylcyclopropanecarboxamide] | 102.65% | 107.49% | 116.85% | 
O=C(NCCN1CCC(Cc2ccccc2)CC1)c1ccccn1 [Example 71, N-(2-(4-benzylpiperidin-1-yl)ethyl)picolinamide] | 67.98% | 117.41% | 105.84% | 
CCCCOc1ccc(C(=O)NCCN2CCC(c3c[nH]c4ccccc34)CC2)cc1 [Example 72, N-(2-(4-(1H-indol-3-yl)piperidin-1-yl)ethyl)-4-butoxybenzamide] | 17.44% | 58.16% | 97.62% | 
O=C(NCCN1CCC(Cc2ccccc2)CC1)c1c[nH]c2ccccc12 [Example 73, N-(2-(4-benzylpiperidin-1-yl)ethyl)-1H-indol-3-carboxamide] | 88.39% | 33.58% | 57.01% | 
Cn1c(C(=O)NCCN2CCC(Cc3ccccc3)CC2)cc2ccccc21 [Example 74, N-(2-(4-benzylpiperidin-1-yl)ethyl)-1-methyl-1H-indol-2-carboxamide] | 67.26% | 39.87% | 28.47% | IC50 (serotonin transporter; [2]): 3.41 µM; IC50 (dopamine transporter; [3]): 0.509 µM; IC50 [1, 4]: 0.337 µM
O=C(NCCN1CCC(Cc2ccccc2)CC1)c1ccc[nH]1 [Example 75, N-(2-(4-benzylpiperidin-1-yl)ethyl)-1H-pyrrol-2-carboxamide] | 98.97% | 83.55% | 67.08% | 
O=C(CCN1CCC(Cc2ccccc2)CC1)Nc1cc2ccccc2[nH]1 [Example 76, 3-(4-benzylpiperidin-1-yl)-N-(1H-indol-2-yl)propanamide] | 68.60% | 36.87% | 32.60% | IC50 (serotonin transporter): 0.811 µM; IC50 (dopamine transporter): 0.278 µM; IC50 [1]: 0.496 µM
O=C(CCC(=O)N1CCC(Cc2ccccc2)CC1)Nc1cc2ccccc2[nH]1 [Example 77, 4-(4-benzylpiperidin-1-yl)-N-(1H-indol-2-yl)-4-oxobutanamide] | 98.61% | 111.32% | 91.05% | 
O=C(O)c1ccc2[nH]c(C(=O)NCCN3CCC(Cc4ccccc4)CC3)cc2c1 [Example 81, 2-((2-(4-benzylpiperidin-1-yl)-ethyl)carbamoyl)-1H-indol-5-carboxylic acid] | 87.86% | 70.22% | 95.95% | 
NC(=O)c1ccc2[nH]c(C(=O)NCCN3CCC(Cc4ccccc4)CC3)cc2c1 [Example 82, N2-(2-(4-benzylpiperidin-1-yl)ethyl)-1H-indol-2,5-dicarboxamide] | 41.20% | 47.70% | 37.73% | 
C[C@]12N[C@H](Cc3ccccc31)c1ccccc12 [MK801, reference compound] |  |  |  | movement duration (male ICR mice; [5]): about 1070 seconds; distance moved (male ICR mice; [5]): about 14000 cm
